One series deals with T1, human GLUT10 (Homo sapiens, UniProt O95528).
T1 construct: A full-length GLUT10 cDNA was cloned into the expression vector pCMV-Tag4a (Stratagene); expressed in transfected cells; host or cells: Xenopus laevis oocytes injected with capped mRNA
T1 sequence (O95528 1-541): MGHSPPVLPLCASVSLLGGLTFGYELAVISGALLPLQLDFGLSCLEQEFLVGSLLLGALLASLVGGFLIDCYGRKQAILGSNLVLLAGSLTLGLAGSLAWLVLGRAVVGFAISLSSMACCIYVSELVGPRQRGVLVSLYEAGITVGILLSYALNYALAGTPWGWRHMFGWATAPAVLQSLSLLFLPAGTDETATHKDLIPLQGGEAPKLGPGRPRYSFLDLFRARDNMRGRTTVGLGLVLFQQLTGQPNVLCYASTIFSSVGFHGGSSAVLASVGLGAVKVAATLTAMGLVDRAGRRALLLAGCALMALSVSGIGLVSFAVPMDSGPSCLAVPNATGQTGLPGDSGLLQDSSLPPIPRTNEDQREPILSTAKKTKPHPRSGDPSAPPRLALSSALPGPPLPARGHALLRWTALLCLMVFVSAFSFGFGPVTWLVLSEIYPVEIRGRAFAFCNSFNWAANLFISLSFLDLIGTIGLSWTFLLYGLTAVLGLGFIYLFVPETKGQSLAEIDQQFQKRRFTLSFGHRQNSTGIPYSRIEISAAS
In words: 2-DOG uptake in Xenopus oocytes injected with GLUT10 RNA. It is filed as cell-based. The settings on record: for effect of competitors on [3H]2-DOG uptake: 100-fold excess: 25 mM competitor. The source says: (§1) Material and Methods. A full-length GLUT10 cDNA was cloned into the expression vector pCMV-Tag4a (Stratagene). A PCR-based strategy employing Pfu polymerase was used for site-directed mutagenesis to generate the GLUT10 single nucleotide polymorpisms. The PCR products were digested with Eco RI, subcloned into pCMV-Tag4a, and the complete insert was sequenced to confirm the identity of the A206T and A287T GLUT10 glucose transporter cDNAs. The pcDNA3.1/GS plasmids expressing the full-length GLUT3 and GLUT4 cDNA were purchased from Invitrogen Corporation. Capped mRNA was generated using the mMESSAGE mMACHINE™ transcription kit (Ambion Inc).
Adult female Xenopus laevis were obtained from Xenopus Express (Homosassa, Fla.) and housed at 17-19° C. on a twelve-hour light/dark cycle. Stage V-VI oocytes were removed from anesthetized frogs and placed in isolation media (108 mM NaCl, 1 mM EDTA, 2 mM KCl, 10 mM HEPES, pH 7.5). The oocyte follicular layer was removed by immersion in 0.5 mg/ml collagenase buffer (83 mM NaCl, 2 mM KCl, 1 mM MgCl2, and 5 mM HEPES, pH 7.5). Isolated oocytes were maintained in modified Barth's saline (MBS; 88 mM NaCl, 1 mM KCl, 10 mM HEPES, 0.82 mM MgSO4, 2.4 mM NaHCO3, 0.91 mM CaCl2, and 0.33 mM Ca(NO3)2, pH 7.5). Visually healthy oocytes were injected with 30 nl of either a mRNA solution (1.0 μg/μl) or sterile water at the interface between the animal and vegetal poles. Individual oocytes were placed in 96-well microtiter plates (Costar Corporation) containing MBS plus 2 mM sodium pyruvate, 0.5 mM theophylline, 10 U/ml penicillin, 10 mg/l streptomycin and 50 mg/] gentamycin (Sigma) at 22° C.
DOG (final specific activity=0.5 Ci/mmol) (NEN Life Science Products, Inc.; American Radiochemical Company). Competitors, inhibitors, or insulin were added to the incubation as indicated. Uptake was terminated by removal of the radioactive solution and three 500 μl washes with ice-cold MBS containing 0.1 mM phloretin (Sigma). Pools of oocytes were dissolved in 10% SDS, mixed with scintillation fluid, and internalized radioactivity was measured by scintillation spectrometry using a Beckman LS-600 scintillation counter. Data are expressed as the arithmetic mean or median of duplicate or triplicate pools of 4 to 12 oocytes at each data point. Transport kinetics were analyzed by best-fit analysis of data points (Cricket Graph, Computer Associates) and Eadie-Hofstee transformation.

Another series addresses T2, human GLUT4 (Homo sapiens, UniProt P14672).
T2 construct: The pcDNA3.1/GS plasmids expressing the full-length GLUT3 and GLUT4 cDNA were purchased from Invitrogen Corporation; host or cells: Xenopus laevis oocytes injected with capped mRNA
T2 sequence (P14672 1-509): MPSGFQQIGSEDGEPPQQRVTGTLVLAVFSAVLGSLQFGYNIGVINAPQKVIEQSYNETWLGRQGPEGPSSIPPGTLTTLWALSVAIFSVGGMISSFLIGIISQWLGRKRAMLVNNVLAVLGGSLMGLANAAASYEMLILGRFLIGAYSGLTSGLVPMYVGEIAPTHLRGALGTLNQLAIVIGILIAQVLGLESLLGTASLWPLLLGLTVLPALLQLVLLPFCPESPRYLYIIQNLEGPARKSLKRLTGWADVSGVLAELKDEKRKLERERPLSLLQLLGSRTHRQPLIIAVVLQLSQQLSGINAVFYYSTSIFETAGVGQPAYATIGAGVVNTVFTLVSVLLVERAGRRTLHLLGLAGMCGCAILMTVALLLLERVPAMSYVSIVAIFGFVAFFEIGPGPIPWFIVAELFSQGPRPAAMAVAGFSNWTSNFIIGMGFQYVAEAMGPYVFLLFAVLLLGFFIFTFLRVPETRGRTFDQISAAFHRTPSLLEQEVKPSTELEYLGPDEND
The experiment in a line: 2-DOG uptake in Xenopus oocytes injected with GLUT4 RNA. The series is classed as cell-based. The following applies: pre-incubation with 100 μM insulin for 30 min, 250 μM [3H]2-DOG.
Excerpt: as §1
(§2) Adult female Xenopus laevis were obtained from Xenopus Express (Homosassa, Fla.) and housed at 17-19° C. on a twelve-hour light/dark cycle. […]
DOG (final specific activity=0.5 Ci/mmol) (NEN Life Science Products, Inc.; American Radiochemical Company). […] Pools of oocytes were dissolved in 10% SDS, mixed with scintillation fluid, and internalized radioactivity was measured by scintillation spectrometry using a Beckman LS-600 scintillation counter. Data are expressed as the arithmetic mean or median of duplicate or triplicate pools of 4 to 12 oocytes at each data point. Transport kinetics were analyzed by best-fit analysis of data points (Cricket Graph, Computer Associates) and Eadie-Hofstee transformation.

The next series has as its target T3, GLUT10 A206T (Homo sapiens, UniProt O95528, A206T).
T3 construct: A full-length GLUT10 cDNA was cloned into the expression vector pCMV-Tag4a (Stratagene); expressed in transfected cells; host or cells: Xenopus laevis oocytes injected with capped mRNA
T3 sequence (O95528 1-541 A206T): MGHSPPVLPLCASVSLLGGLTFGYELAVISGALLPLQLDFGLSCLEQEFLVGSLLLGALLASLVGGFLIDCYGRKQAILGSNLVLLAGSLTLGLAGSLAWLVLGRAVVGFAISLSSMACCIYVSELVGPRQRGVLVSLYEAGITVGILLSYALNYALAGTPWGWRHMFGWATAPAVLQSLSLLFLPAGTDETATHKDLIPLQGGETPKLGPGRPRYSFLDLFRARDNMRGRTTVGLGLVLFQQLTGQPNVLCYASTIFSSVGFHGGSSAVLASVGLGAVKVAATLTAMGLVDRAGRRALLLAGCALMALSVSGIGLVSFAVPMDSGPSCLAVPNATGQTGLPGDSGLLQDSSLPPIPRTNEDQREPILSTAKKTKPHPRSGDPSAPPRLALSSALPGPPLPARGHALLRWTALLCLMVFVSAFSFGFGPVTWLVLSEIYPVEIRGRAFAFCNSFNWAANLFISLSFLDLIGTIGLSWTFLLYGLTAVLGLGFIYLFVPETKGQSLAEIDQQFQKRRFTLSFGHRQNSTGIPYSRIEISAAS
In words: 2-DOG uptake in Xenopus oocytes expressing GLUT10 A206T isoform. The series is classed as cell-based. The settings on record: pre-incubation with insulin.
Excerpt: as §1, §2
(§3) DOG (final specific activity=0.5 Ci/mmol) (NEN Life Science Products, Inc.; American Radiochemical Company). […] Pools of oocytes were dissolved in 10% SDS, mixed with scintillation fluid, and internalized radioactivity was measured by scintillation spectrometry using a Beckman LS-600 scintillation counter. Data are expressed as the arithmetic mean or median of duplicate or triplicate pools of 4 to 12 oocytes at each data point. Transport kinetics were analyzed by best-fit analysis of data points (Cricket Graph, Computer Associates) and Eadie-Hofstee transformation. […]

For the next series, the target named is T4, GLUT10 A28T (Homo sapiens, UniProt O95528, A287T).
T4 construct: A full-length GLUT10 cDNA was cloned into the expression vector pCMV-Tag4a (Stratagene); expressed in transfected cells; host or cells: Xenopus laevis oocytes injected with capped mRNA
T4 sequence (O95528 1-541 A287T): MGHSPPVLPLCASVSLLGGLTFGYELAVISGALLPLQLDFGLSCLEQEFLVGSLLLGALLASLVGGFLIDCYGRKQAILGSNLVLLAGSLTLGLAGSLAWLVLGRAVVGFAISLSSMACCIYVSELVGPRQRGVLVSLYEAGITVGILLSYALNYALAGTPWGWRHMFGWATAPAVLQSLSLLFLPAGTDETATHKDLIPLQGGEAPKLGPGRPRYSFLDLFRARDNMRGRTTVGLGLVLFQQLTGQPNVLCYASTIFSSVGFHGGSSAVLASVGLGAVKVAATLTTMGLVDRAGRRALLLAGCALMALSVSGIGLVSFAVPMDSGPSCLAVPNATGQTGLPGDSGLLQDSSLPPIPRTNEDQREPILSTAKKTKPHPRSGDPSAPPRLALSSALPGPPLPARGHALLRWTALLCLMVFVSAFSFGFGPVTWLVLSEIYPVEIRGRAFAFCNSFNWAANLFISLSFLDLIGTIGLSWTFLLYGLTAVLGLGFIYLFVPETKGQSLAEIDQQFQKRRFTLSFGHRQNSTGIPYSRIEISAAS
In words: 2-DOG uptake in Xenopus oocytes expressing GLUT10 A28T isoform. The series is classed as cell-based. The settings on record: pre-incubation with insulin.
Excerpt: as §1, §2, §3

Substrate in series [1]: O=CC[C@@H](O)[C@H](O)[C@H](O)CO
In words: cells, lysate or membranes. The settings on record: Eadie-Hofstee analysis, pH 7.5.

The mark [2] stands for this setting: 250 μM [3H]2-DOG, 30 min at 22° C.

“Also recorded” adds a separate entry of the source.

What is called Km is the concentration of substrate that gives half-maximal velocity.

For `O=C[C@H](O)[C@@H](O)[C@H](O)[C@H](O)CO` [D-glucose], the “effect of competitors on [3H]2-DOG uptake” value (“effect of competitors” for short) on human GLUT10 (setting [2]) is listed as “effectively competed”.
`O=C[C@H](O)[C@@H](O)[C@@H](O)[C@H](O)CO` [D-galactose]: the “effect of competitors” value on human GLUT10 (setting [2]) is on record as “inhibited 2-DOG uptake but less effectively; also recorded: competed”.
In the case of insulin, in the series with human GLUT10 (pre-incubation with insulin, oocytes injected with GLUT10 mRNA), the “insulin stimulation of glucose transport” value is “approximately 2 fold”. Also, the “insulin stimulation of 2-DOG transport” value in the series with human GLUT10 (wild type GLUT10, pre-incubation with 100 μM insulin for 30 min, 250 μM [3H]2-DOG) is “stimulated”; with human GLUT4, “stimulated”. The “insulin stimulation of 2-DOG uptake activity” value in the series with GLUT10 A206T and in the series with GLUT10 A28T was “not stimulated” throughout.
Turning to `O=C(CCc1ccc(O)cc1)c1c(O)cc(O)cc1O` [phloretin], the “effect of phloretin on 2-DOG uptake” value on human GLUT10 (100 μM phloretin, 25 μM [3H]2-DOG, 30 min at 22° C.) is “inhibited”.
For `O=C(CO)[C@@H](O)[C@H](O)[C@H](O)CO` [fructose], the “effect of competitors” value at human GLUT10 (setting [2]) is listed as “did not inhibit”.
For `O=CC[C@@H](O)[C@H](O)[C@H](O)CO` [2-DOG, 2-deoxy-D-glucose], the “2-DOG uptake over the water-injected controls” value on human GLUT10 (25 μM 2-DOG, 30 min at 22° C., 3 days after injection of 30 ng GLUT10 RNA) is 5 fold. For the same molecule, at human GLUT10 (setting [2]), the “effect of competitors” value is on record as “effectively competed”. Besides, the “Vmax of 2-DOG uptake” value on human GLUT10 (GLUT10 RNA-injected oocytes, 30 min at 22° C., Eadie-Hofstee analysis) amounted to 0.85 pmol oocyte^−1 30 min^−1. In addition, the Km on human GLUT10 (read-out: apparent Km for 2-DOG transport, GLUT10 mRNA-injected oocytes, 30 min, Eadie-Hofstee analysis) is about 300 µM.

B1: human GLUT10 (Homo sapiens) (protein)
chain: MGHSPPVLPLCASVSLLGGLTFGYELAVISGALLPLQLDFGLSCLEQEFLVGSLLLGALLASLVGGFLIDCYGRKQAILGSNLVLLAGSLTLGLAGSLAWLVLGRAVVGFAISLSSMACCIYVSELVGPRQRGVLVSLYEAGITVGILLSYALNYALAGTPWGWRHMFGWATAPAVLQSLSLLFLPAGTDETATHKDLIPLQGGEAPKLGPGRPRYSFLDLFRARDNMRGRTTVGLGLVLFQQLTGQPNVLCYASTIFSSVGFHGGSSAVLASVGLGAVKVAATLTAMGLVDRAGRRALLLAGCALMALSVSGIGLVSFAVPMDSGPSCLAVPNATGQTGLPGDSGLLQDSSLPPIPRTNEDQREPILSTAKKTKPHPRSGDPSAPPRLALSSALPGPPLPARGHALLRWTALLCLMVFVSAFSFGFGPVTWLVLSEIYPVEIRGRAFAFCNSFNWAANLFISLSFLDLIGTIGLSWTFLLYGLTAVLGLGFIYLFVPETKGQSLAEIDQQFQKRRFTLSFGHRQNSTGIPYSRIEISAAS
For B1, the Km was 280 µM in series [1] (other: GLUT10 RNA (30 ng) injected oocytes, 30 min at 22° C., corrected for water-injected background) and 300 µM in series [1] (other: GLUT10 mRNA-injected oocytes, 30 min, 22.0 °C).

The values are drawn from patent US6849728B1, “GLUT10: a glucose transporter in the type 2 diabetes linked region of chromosome 20Q12-13.1” (Wake Forest University Health Sciences, priority 2000, dated 2005).
